Measured values published in patent US20240041042A1, “1-(PYRIDYL)-5-AZINYLPYRAZOLE DERIVATIVES, AND THEIR USE FOR CONTROL OF UNDESIRED PLANT GROWTH” (Bayer Aktiengesellschaft, priority 2020, published 2024).
Read-outs that look alike come from different tables or passages of the source.

Key:
Assay type in all cases: in vivo
[1] = tested on: Alopecurus myosuroides (ALOMY); experiment: Pre-emergence herbicidal action against ALOMY; settings: scored visually after about 3 weeks, 100% = plants have died
Outline: (§1)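 Herbicide applied to soil before seedling emergence, at 600 l/ha spray volume with 0.5% additive and rates up to 320 g/ha. Evaluation: visual percentage effect, about 3 weeks later, greenhouse-grown pots compared with untreated ones.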

[2] = tested on: Amaranthus retroflexus (AMARE); experiment: Pre-emergence herbicidal action against AMARE; settings: visual scoring after about 3 weeks vs untreated controls
Outline: as §1

Avena fatua (AVEFA) [3] = experiment: Pre-emergence herbicidal action against AVEFA; settings: 320 g/ha, visual scoring after about 3 weeks vs untreated controls
Outline: as §1

[4] = tested on: Digitaria sanguinalis (DIGSA); experiment: Pre-emergence herbicidal action against DIGSA
Outline: as §1

[5] = tested on: Echinochloa crus-galli (ECHCG); experiment: Pre-emergence herbicidal action against ECHCG; settings: dosage 320 g/ha
Outline: as §1

Lolium rigidum (LOLRI) [6] = experiment: Pre-emergence herbicidal action against LOLRI
Outline: as §1

[7] = tested on: Polygonum convolvulus (POLCO); experiment: Pre-emergence herbicidal action against POLCO
Outline: as §1

Setaria viridis (SETVI) [8] = experiment: Pre-emergence herbicidal action against SETVI
Outline: as §1

[9] = tested on: Verconica persica (VERPE); experiment: Pre-emergence herbicidal action against VERPE; settings: dosage 320 g/ha
Outline: as §1

Viola tricolor (VIOTR) [10] = experiment: Pre-emergence herbicidal action against VIOTR
Outline: as §1

Oryza sativa (ORYSA) [11] = settings: pre-emergence, 80 g/ha, crop plant compatibility, in comparison to untreated controls
Outline: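 Scoring: visual, % of untreated control, about 3 weeks after a pre-emergence application to the soil surface. Application used WP or EC formulations diluted in water with 0.5% additive at 600 l/ha; dosage levels are marked by suffixes a, b and c.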

[12] = tested on: Abutilon theophrasti (ABUTH); experiment: Post-emergence herbicidal action against ABUTH; settings: 80 g/ha, visual rating about 3 weeks after treatment vs untreated controls (100% = plants have died, 0% = like control plants)
Outline: (§2)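 Rates were 320 g/ha or below, applied as aqueous WP/EC spray with 0.5% additive (600 l/ha) onto one-leaf-stage plants. About 3 weeks later in the greenhouse, damage was scored visually against untreated plants on a 0–100% scale, where 100% means plants died.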

[13] = tested on: Alopecurus myosuroides (ALOMY); experiment: Post-emergence herbicidal action against ALOMY; settings: 80 g/ha, visual rating about 3 weeks after treatment vs untreated controls (100% = plants have died, 0% = like control plants)
Outline: as §2

[14] = tested on: Amaranthus retroflexus (AMARE); experiment: Post-emergence herbicidal action against AMARE; settings: 80 g/ha, visual rating about 3 weeks after treatment vs untreated controls (100% = plants have died, 0% = like control plants)
Outline: as §2

Avena fatua (AVEFA) [15] = experiment: Post-emergence herbicidal action against AVEFA; settings: 80 g/ha, visual rating about 3 weeks after treatment
Outline: as §2

[16] = tested on: Echinochloa crus-galli (ECHCG); experiment: Post-emergence herbicidal action against ECHCG; settings: dosage 80 g/ha
Outline: as §2

Lolium rigidum (LOLRI) [17] = experiment: Post-emergence herbicidal action against LOLRI; settings: dosage 80 g/ha
Outline: as §2

[18] = tested on: Matricaria inodora (MATIN); experiment: Post-emergence herbicidal action against MATIN; settings: dosage 80 g/ha
Outline: as §2

[19] = tested on: Pharbitis purpurea (PHBPU); experiment: Post-emergence herbicidal action against PHBPU; settings: dosage 80 g/ha
Outline: as §2

[20] = tested on: Polygonum convolvulus (POLCO); experiment: Post-emergence herbicidal action against POLCO; settings: dosage 80 g/ha
Outline: as §2

[21] = tested on: Verconica persica (VERPE); experiment: Post-emergence herbicidal action against VERPE; settings: dosage 80 g/ha
Outline: as §2

Viola tricolor (VIOTR) [22] = experiment: Post-emergence herbicidal action against VIOTR; settings: 80 g/ha
Outline: as §2

Oryza sativa (ORYSA) [23] = settings: crop plant compatibility
Outline: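 Percent effect on the crop was judged by eye against untreated controls, where 0% means like control and 100% means dead plants. Plants had been sprayed post-emergence at the one-leaf stage and then kept under optimum greenhouse conditions for about 3 weeks.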

[24] = tested on: Matricaria inodora (MATIN); experiment: Pre-emergence herbicidal action against MATIN; settings: dosage 320 g/ha
Outline: as §1

[25] = tested on: Pharbitis purpurea (PHBPU); experiment: Pre-emergence herbicidal action against PHBPU
Outline: as §1

[26] = tested on: Digitaria sanguinalis (DIGSA); experiment: Post-emergence herbicidal action against DIGSA; settings: 80 g/ha, visual rating about 3 weeks after treatment
Outline: as §2

Setaria viridis (SETVI) [27] = experiment: Post-emergence herbicidal action against SETVI; settings: dosage 80 g/ha
Outline: as §2

[28] = 80 g/ha, visual scoring after about 3 weeks vs untreated controls
[29] = 20 g/ha, effect vs untreated controls
[30] = 80 g/ha, effect in comparison to untreated controls

Pre-emergence action against ORYSA in % (Oryza sativa (ORYSA) [11])	SMILES	Pre-emergence action against ALOMY ([1]; 80 g/ha)	Pre-emergence action against ALOMY ([1]; 320 g/ha)	Pre-emergence action against AMARE in % ([2]; 80 g/ha)	Pre-emergence action against AMARE in % ([2]; 320 g/ha)	Pre-emergence action against AVEFA in % (Avena fatua (AVEFA) [3])	Pre-emergence action against DIGSA in % [4, 28]	Pre-emergence action against DIGSA in % ([4]; dosage 320 g/ha)	Pre-emergence action against LOLRI in % (Lolium rigidum (LOLRI) [6]; dosage 80 g/ha)	Pre-emergence action against LOLRI in % (Lolium rigidum (LOLRI) [6]; dosage 320 g/ha)	Pre-emergence action against POLCO in % ([7]; dosage 320 g/ha)	Pre-emergence action against SETVI in % (Setaria viridis (SETVI) [8]; dosage 80 g/ha)	Pre-emergence action against SETVI in % (Setaria viridis (SETVI) [8]; dosage 320 g/ha)	Pre-emergence action against VERPE in % [9]	Pre-emergence action against VIOTR in % (Viola tricolor (VIOTR) [10]; 320 g/ha, Viola tricolor)	Post-emergence action against ABUTH in % [12]	Post-emergence action against ALOMY in % [13]	Post-emergence action against AMARE in % [14]	Post-emergence action against AVEFA in % (Avena fatua (AVEFA) [15])	Post-emergence action against ECHCG in % [16]	other results
20%	COC(=O)[C@@H](C)NC(=O)COc1nn(-c2ccccn2)c(-c2ccnc(F)c2)c1Br [Example I-59]	80%	100%	100%	100%	80%	100%	100%	80%	100%	90%	90%	100%	90%	90%	80%	90%	90%	80%	80%	Pre-emergence action against ECHCG in % [5]: 100%; Pre-emergence action against POLCO in % ([7]; dosage 80 g/ha): 80%; Pre-emergence action against VIOTR in % (Viola tricolor (VIOTR) [10]; dosage 80 g/ha): 90%; Post-emergence action against LOLRI in % (Lolium rigidum (LOLRI) [17]): 80%; Post-emergence action against MATIN in % [18]: 80%; Post-emergence action against PHBPU in % [19]: 80%; Post-emergence action against POLCO in % [20]: 80%; Post-emergence action against VERPE in % [21]: 90%; Post-emergence action against VIOTR in % (Viola tricolor (VIOTR) [22]): 80%; Post-emergence action against ORYSA in % (Oryza sativa (ORYSA) [23]; [29]): 0%; Post-emergence action against ORYSA in % (Oryza sativa (ORYSA) [23]; [30]): 0%
20%	COC(=O)CNC(=O)COc1nn(-c2ccccn2)c(-c2ccc(F)nc2)c1Cl [Example I-64]	90%	100%	100%	100%	90%	100%	100%	80%	100%	90%	90%	100%	90%	90%	90%	100%	90%	80%	90%	Pre-emergence action against ECHCG in % [5]: 100%; Pre-emergence action against MATIN in % [24]: 90%; Pre-emergence action against PHBPU in % ([25]; dosage 80 g/ha): 90%; Pre-emergence action against PHBPU in % ([25]; dosage 320 g/ha): 90%; Post-emergence action against DIGSA in % [26]: 90%; Post-emergence action against LOLRI in % (Lolium rigidum (LOLRI) [17]): 80%; Post-emergence action against MATIN in % [18]: 90%; Post-emergence action against PHBPU in % [19]: 90%; Post-emergence action against SETVI in % (Setaria viridis (SETVI) [27]): 90%; Post-emergence action against VERPE in % [21]: 90%; Post-emergence action against VIOTR in % (Viola tricolor (VIOTR) [22]): 80%; Post-emergence action against ORYSA in % (Oryza sativa (ORYSA) [23]; [29]): 10%
10%	COC(=O)CNC(=O)COc1nn(-c2ccccn2)c(-c2ccc(F)nc2)c1Br [Example I-97]	90%	100%	90%	100%	80%	100%	100%	80%	100%	90%	80%	100%	90%	100%	90%	90%	90%	80%	80%	Pre-emergence action against MATIN in % [24]: 80%; Pre-emergence action against PHBPU in % ([25]; dosage 320 g/ha): 90%; Post-emergence action against DIGSA in % [26]: 80%; Post-emergence action against MATIN in % [18]: 80%; Post-emergence action against PHBPU in % [19]: 80%; Post-emergence action against SETVI in % (Setaria viridis (SETVI) [27]): 80%; Post-emergence action against VERPE in % [21]: 90%; Post-emergence action against VIOTR in % (Viola tricolor (VIOTR) [22]): 80%; Post-emergence action against ORYSA in % (Oryza sativa (ORYSA) [23]; [29]): 0%; Post-emergence action against ORYSA in % (Oryza sativa (ORYSA) [23]; [30]): 10%
